Test results reported in patent US20180169135A1, “METHOD FOR PREVENTING TRANSPLANT FAILURE IN A HOST” (Universiteit Maastricht, priority 2015, published 2018).

Molecular target: Histon H3 (Homo sapiens, UniProt P68431)

heparin [UFH]
neutralization of the cytotoxic activity of Histon H3: neutralize the cytotoxic activity of Histon H3
